“Also recorded” adds a separate entry of the source. Where two headings read alike, the source gives them in different places.
What was measured:
[1] = DCA clearance from the blood of human subjects after intravenous infusion; format: in vivo
Procedure: (§1) Teflon venous catheters were placed in both forearms of all subjects. One, for drug administration, was left in place for 10 hours. The other, for blood sampling, was left in place for about 30 hours. Both venous cannulae were regularly flushed with a heparin-saline solution to avoid any risk of clogging or clotting. When blood was sampled, the first-drawn fluid was discarded, so that blood samples were not contaminated with the heparin-saline solution.
(§2) Sodium dichloroacetate (NaDCA; purchased in powdered form from TCI America, Inc., Portland, Oreg.) was dissolved in saline solution to provide a 10% sterile solution (i.e., 10 g of NaDCA in 100 ml solution) at a contract lab. The vials containing 10% solution were shipped to the study site, in Indiana, and then diluted to form approximately 2% solutions in intravenous drip bags. Exact concentrations depended to some extent on the weight of each patient; all concentrations were within 20 % of isotonic levels. A 2% solution was administered through one cannula into each test subject over a period of 30 minutes, at a dosage of 30 mg/kg (i.e, 30 milligrams of NaDCA salt per kilogram of body weight). The average total weight of NaDCA infused into each patient was about 2.26±0.54 g; total volume of solution was about 100 ml. […] Nine subjects received a single infusion of DCA, and nine received the saline placebo.
(§3) Samples of venous blood from the other cannula (in the opposite forearm) were taken, before and several times periodically after the intravenous infusion. The infusions were number-coded, and all solutions (both active and placebo) were colorless; therefore, this was a double-blinded study.
Blood samples were collected into tubes containing sodium heparin, and spun at 64 G (i.e., 64 times normal gravity) for 10 minutes, to remove blood cells. The supernatant was then deproteinized, using 6% perchloric acid; various other agents, such as acetonitrile, could alternately be used if desired. […]

[2] = Side effects of DCA infusion in healthy volunteers; format: in vivo, human; conditions: 100 mg/kg infused within 30 minutes
Procedure: Accordingly, to ensure that this effect would not occur when DCA was administered, an initial dose of 100 mg/kg NaDCA was infused into test subjects, and a second dose of 50 mg/kg was infused 8 hours later.
The dose of 100 mg/kg is the highest dose so far administered to human beings within 30 minutes. […] This was not considered clinically significant and needed no treatment; it would be relatively unimportant in most of the pathological states that are proper subjects for treatment using DCA. However, the sedation side effect was regarded as creating a practical limit (100 mg/kg infused in 30 minutes or less) for tests on healthy volunteers.

[3] = Reported DCA concentration and clearance in rats (literature); format: in vivo, rat; conditions: oral 100 mg/kg vs. human i.v.
Procedure: Evans et al 1981 administered DCA orally, in 100 mg/kg doses, either once, or daily for seven days.

[4] = Reported DCA pharmacokinetics in dogs (literature); format: in vivo, dog; conditions: dogs vs. 0.5 hour in humans
From the text: Accordingly, dogs cannot be used as reliable models or predictors for the pharmacokinetic effects of DCA in humans.

[5] = cited from earlier work
[6] = tested on: pyruvate dehydrogenase enzyme complex; conditions: rats; Evans 1982; cited from earlier work
[7] = especially over prolonged periods, Stacpoole et al 1979; cited from earlier work
[8] = humans, cited from earlier work
[9] = dogs; Lukas et al 1980, Ribes et al 1979; cited from earlier work
[10] = tested on: serum lactate; assay: Serum/blood lactate concentration in human volunteers after intravenous DCA infusion; format: in vivo; conditions: for Serum lactate, baseline: before infusion; for Serum lactate, baseline / Serum lactate just before second infusion / Serum lactate 14 h after second infusion: mean ± SEM; for Serum lactate just before second infusion: second infusion 8 h later; for Level of statistical significance, (b) vs. placebo: just before second infusion; for Persistence of lactate reduction relative to DCA clearance: 60 mg/kg
Procedure: Eighteen human beings entered this study; all provided informed consent that was acceptable to an independent Institutional Review Board, which also approved the study design and toxicological coverage. The human subjects were all healthy, were fasted for 18 hours prior to the study infusions, and were all within 85% to 115% of ideal body weight, using actuarial tables published by the Metropolitan Life Insurance Company. Each received an accurately measured meal (late breakfast, 821 kcal total including 116 g of carbohydrate, 30 g of protein, and 32 g of fat).
as §1, §2, §3
Blood samples were collected into tubes containing sodium heparin, and spun at 64 G (i.e., 64 times normal gravity) for 10 minutes, to remove blood cells. The supernatant was then deproteinized, using 6% perchloric acid; various other agents, such as acetonitrile, could alternately be used if desired. The deproteinized liquid was then centrifuged again at 64 G for 10 minutes, and the supernatant was decanted and divided into 0.20 mL aliquots. At least one aliquot was stored at -40° C. as a backup in case checks were needed, while tests were run on other aliquots.
Blood samples were assayed for lactate concentration at a registered clinical laboratory (SmithKline Beckman, in Evansville, Ind.), using a commercial assay kit sold by Sigma Chemical Company (St. Louis, Mo.). This assay uses an enzymatic procedure involving lactate dehydrogenase; it adds glycine to the samples as a buffer, along with a standardized excess amount of NAD. The lactate dehydrogenase enzyme converts lactate to pyruvate, and the hydrogen atoms that are liberated by this reaction convert NAD to reduced NAD (NADH). The NADH absorbs ultraviolet light at 340 nm, and the level of absorbance (measured by a spectrophotometer) is directly proportional to the amount of NADH in the sample, and thus to the amount of lactate that was initially present in the sample.
In a second set of test subjects (18 total: 9 test subjects and 9 saline placebo controls), sodium DCA was administered in an identical manner, using a single 30-minute infusion, at a dosage of 60 mg/kg. […]

[11] = 100 + 50 group, 14 h after second infusion

Question: For O=C([O-])C(Cl)Cl.[Na+] [DCA, sodium dichloroacetate], which “Clearance rate of 30 mg/kg dose with vs. without prior DCA exposure” value ([1]; 30 mg/kg i.v., prior 60 mg/kg 8 hours earlier, FIG. 4) is on record?
Answer: Its value is “comparable”.

Question: What about the “Clearance rate of 50 mg/kg dose after prior exposure vs. single 60 mg/kg dose” value ([1]; 50 mg/kg i.v., prior 100 mg/kg 8 hours earlier) of the same compound?
Answer: Its value is “similar”.

Question: What about the “DCA clearance from blood” value ([1]; single 60 mg/kg i.v., by 6.5 hours) of the same compound?
Answer: The value was “nearly all of the DCA had already been avidly cleared from the blood”.

Question: What about the “Duration of transient sedation or sleepiness” value [2] of the same compound?
Answer: Its value is “about 20 minutes”.

Question: And the “Transient sedation or sleepiness” value [2]?
Answer: Its value is “a number of subjects reported transient sedation or sleepiness”.

Question: What about the “Inferred plasma concentration relative to that in human patients dosed intravenously” value [3] of the same compound?
Answer: Its value is “about 1/10”.

Question: What about the “Half-life in dogs relative to humans” value [4] of the same compound?
Answer: Its value is “about 40 times longer”.

Question: And the “Peak DCA concentration in liver tissue” value ([5]; oral 100 mg/kg, once or daily for seven days, Evans et al 1981)?
Answer: The value was “about 25 μg of DCA per gram of liver tissue”.

Question: What about the “DCA concentration in the liver over time” value ([5]; rats, Evans 1982) of the same compound?
Answer: The value was “declined rapidly with time”.

Question: And the DCA clearance ([5]; rats, in words)?
Answer: Its DCA clearance is “fairly rapid”.

Question: And the “Activation of the pyruvate dehydrogenase enzyme complex over time” value [6]?
Answer: The value was “dropped off rapidly with time”.

Question: What about the “Toxic effects of oral administration” value [7] of the same compound?
Answer: The value was “may have toxic effects”.

Question: And the Half-life ([8]; Lukas et al 1980, Ribes et al 1979)?
Answer: Its Half-life is 30 min.

Question: And the Half-life ([8]; Wells et al 1980)?
Answer: Its Half-life is 31 min.

Question: And the “Time to complete elimination” value ([8]; Wells et al 1980)?
Answer: Its value is at most 5 h.

Question: And the “Clearance from circulating blood” value ([8]; in words)?
Answer: The value was “rapidly cleared”.

Question: What about the Half-life [9] of the same compound?
Answer: Its Half-life is 1140 to 1440 min.

Question: What about the “Duration of blood lactate reduction (FIG. 3 legend)” value ([10]; 60 mg/kg as printed in legend) of the same compound?
Answer: Its value is “more than 8 hours”.

Question: What about the “Persistence of reduction in serum lactate after the first infusion” value ([10]; 100 mg/kg followed by 50 mg/kg 8 hours later) of the same compound?
Answer: Its value is “more than 22 hours”.

Question: And the “Duration of lactate reduction” value ([10]; 100 mg/kg single i.v. infusion)?
Answer: Its value is over 8 h.

Question: And the “Persistence of lactate reduction relative to serum DCA” value ([10]; 100 mg/kg single i.v. infusion, in words)?
Answer: The value was “persistent reduction in serum lactate levels which significantly outlasted the serum DCA concentrations”.

Question: And the “Serum lactate, baseline” value ([10]; 60 + 30 group (mg/kg))?
Answer: Its value is 1.19 ± 0.24 mM.

Question: And the “Serum lactate just before second infusion” value ([10]; 60 + 30 group (mg/kg))?
Answer: Its value is 0.72 ± 0.15 mM.

Question: What about the “Serum lactate 14 h after second infusion” value ([10]; 60 + 30 group (mg/kg)) of the same compound?
Answer: The value was 0.94 ± 0.12 mM.

Question: And the “Level of statistical significance, (c) vs. placebo” value ([10]; 60 + 30 group, 14 h after second infusion)?
Answer: Its value is 0.021.

Question: And the “Level of statistical significance, (b) vs. placebo” value ([10]; 60 + 30 group)?
Answer: Its value is 0.009.

Question: And the “Serum lactate, baseline” value ([10]; 100 + 50 group (mg/kg))?
Answer: The value was 0.84 ± 0.10 mM.

Question: What about the “Serum lactate just before second infusion” value ([10]; 100 + 50 group (mg/kg)) of the same compound?
Answer: Its value is 0.39 ± 0.04 mM.

Question: What about the “Serum lactate 14 h after second infusion” value ([10]; 100 + 50 group (mg/kg)) of the same compound?
Answer: Its value is 0.32 ± 0.08 mM.

Question: And the “Level of statistical significance, (c) vs. 60 + 30” value [10, 11]?
Answer: The value was 0.004.

Question: And the “Level of statistical significance, (c) vs. placebo” value [10, 11]?
Answer: The value was under 0.001.

Question: And the “Level of statistical significance, (b) vs. placebo” value ([10]; 100 + 50 group)?
Answer: Its value is under 0.001.

Question: And the “Time course of DCA concentration and lactate reduction” value ([10]; single 30 mg/kg i.v. infusion, in words, FIG. 1, 30 mg/kg)?
Answer: The value was “a peak of DCA concentration which rapidly dropped off, and a similar peak in lactate reduction which disappeared fairly rapidly; also recorded: closely paralleled (over time) the clearance of DCA from the blood”.

Question: What about the “Duration of blood lactate reduction” value ([10]; single 30 mg/kg i.v. infusion, in words, 30 mg/kg) of the same compound?
Answer: Its value is “returned to normal levels within a few hours”.

Question: And the “Duration of blood lactate reduction” value ([10]; single 30 mg/kg i.v. infusion, in words, listed as NaDCA, 30 mg/kg)?
Answer: The value was “lasted only a few hours”.

Question: And the “Reversal of the decline in serum lactate levels” value ([10]; single 60 mg/kg i.v. infusion, at 6.5 hours and afterwards)?
Answer: The value was “no evidence of reversal of the decline in serum lactate levels”.

Question: And the “Persistence of lactate reduction relative to DCA clearance” value ([10]; single 60 mg/kg i.v. infusion, in words)?
Answer: The value was “significantly outlasted the persistence of serum DCA levels”.

Question: What about the “Persistence of lactate reduction relative to DCA clearance” value ([10]; single 60 mg/kg i.v. infusion, in words, listed as NaDCA) of the same compound?
Answer: Its value is “lasted substantially longer and persisted even after substantially all of the DCA had been cleared from the patient's blood; also recorded: substantially outlasted the clearance of DCA from the circulation”.

Question: What about the “Duration of reduction in plasma lactate after start of second infusion” value ([10]; two infusions eight hours apart) of the same compound?
Answer: Its value is “more than 12 hours”.

Question: What about the “Duration of serum lactate reduction using two injections over 24 h” value ([10]; two injections, about 40 mg/kg DCA or more per injection) of the same compound?
Answer: The value was at least 24 h.

Source: patent US5587397A, “Reduction of elevated blood lactate using twice-daily dichloroacetate” (Cypros Pharmaceutical Corporation, priority 1995, dated 1996)
